How the values were obtained:
[1] = tested on: T1, tubulin; experiment: competitive colchicine-tubulin fluorescence assay; limited trypsin proteolysis; format: binding, Canis lupus familiaris
T1 construct: tubulin prepared from fresh dog brain tissue; with alpha/beta-tubulin heterodimer

[2] = tested on: T1, tubulin; experiment: competition with BODIPY FL-vinblastine (fluorescence); format: binding, Canis lupus familiaris

SMILES | IC50 [1] [µM] | IC50 [2] [µM]
COc1ccc2c(c1)NC(=O)CN2c1nc(C)nc2ccccc12 [WX-132-18B] | 0.47 ± 0.1 | 
CC[C@]1(O)C[C@H]2CN(CCc3c([nH]c4ccccc34)[C@@](C(=O)OC)(c3cc4c(cc3OC)N(C=O)[C@H]3[C@@](O)(C(=O)OC)[C@H](OC(C)=O)[C@]5(CC)C=CCN6CC[C@]43[C@@H]65)C2)C1 [vincristine] |  | 6.97 ± 1.61

— publication PMC5641089, “WX-132-18B, a novel microtubule inhibitor, exhibits promising anti-tumor effects” (Oncotarget, 2017)
